Values quoted from earlier work as cited in patent US20260364080A1, “PYRAZOLO-PYRIMIDINONE COMPOUNDS FOR USE IN METHODS OF INHIBITING WEE1 A KINASE” (Acrivon Therapeutics, Inc., priority 2023, published 2026).

Key:
uterine serous carcinoma = settings: phase II study, women with uterine serous carcinoma; cited from earlier work
[1] = test system: RAS/TP53 mutated metastatic colorectal cancer; settings: cited from earlier work

**Q.** With `C=CCn1c(=O)c2cnc(Nc3ccc(N4CCN(C)CC4)cc3)nc2n1-c1cccc(C(C)(C)O)n1` [AZD1775, adavosertib] as the compound, how does the clinical activity (uterine serous carcinoma) read?
**A.** promising results

**Q.** What about the “effect compared to active monitoring” value [1] of the same compound?
**A.** shown effect compared to active monitoring
